Experimental data from PubChem BioAssay AID1963871 (Molecular Pharmacology Branch, DTP, NCI, 2024).

System: KRAS-mutant PDC multicell tumor spheroid viability
Assay: Anticancer human tumor 521955-158-R2-J5-PDC patient-derived pancreatic carcinoma cell line growth inhibition [KRAS2]
Details: for IC50: curve of first compound; for viability, T/C: stronger effect = lower value
Text: Multicellular complex tumor spheroid response to RAS pathway inhibitors in combination with a targeted agents in patient-derived cell lines with oncogenic KRAS variants from multiple cancer types
A high-throughput screen of multi-cell type tumor spheroids was designed to identify active combinations of targeted small molecules and KRAS pathway inhibitors. Complex spheroids include a stromal component modeled by human endothelial cells (HUVEC) and fibroblasts modeled by human mesenchymal stem cells (MSCs). The concentration ranges selected for each drug and investigational agent were based upon clinically achievable concentrations if the clinical Cmax of the agent was known.
Compounds. The drugs and investigational agents: BI-3406 (NSC825286), BAY-293 (NSC824723), batoprotafib (TNO155; NSC825523), sotorasib (AMG 510; NSC818433), MRTX1257 (NSC819558), elimusertib (BAY 1895344; NSC800525), molibresib (GSK525762; NSC774829), temuterkib (LY3214996; NSC803410), venetoclax (NSC766270), alisertib (NSC759677), olaparib (NSC753686), talazoparib (NSC767125), erdafitinib (NSC781556), ipatasertib (NSC767898), cabozantinib (NSC761068), nintedanib (NSC756659), abemaciclib (NSC768073), docetaxel (NSC628503), trametinib (NSC758246), and sapanisertib (NSC764658) were obtained from the National Cancer Institute (NCI) Developmental Therapeutics Program Chemical Repository. The FDA-approved anticancer drug set is available from the Developmental Therapeutics Program. […] The stock solutions were prepared in dimethyl sulfoxide (DMSO, Sigma-Aldrich, St. Louis, MO, cat. D2650) at 800-fold the tested concentration and stored at -70 degrees C prior to their use. All drugs and investigational agents were tested over a range starting from a high concentration at or near the clinical Cmax and decreasing in half-log increments. If the clinical Cmax for an agent had not been determined, the highest concentration tested was 10 microM.
Cell Culture. All cells were maintained in an incubator at 37 degrees C and 5% CO2 with 95% humidity. The PDC lines were cultured according to standard operating procedures established by the NCI PDMR (https://pdmr.cancer.gov/sops/default.htm). Briefly, all PDCs were thawed and cultured in Matrigel-coated flasks prepared with a working solution of 1X Ham's F-12 nutrient mix, without supplementation (Invitrogen, Waltham, MA, cat. 11765054), 100 U/mL penicillin-streptomycin (Invitrogen, cat. 15140122), and 2.5% Matrigel (Corning Inc., Corning, NY, cat. 354248) for the first three passages. All PDCs were cultured in complete DMEM/F-12 media containing advanced DMEM/F-12 (Invitrogen, cat. 12634028), 4.9% defined fetal bovine serum, heat inactivated (HyClone Laboratories Inc., Logan, UT, cat. SH30070.03HI), 389 ng/mL hydrocortisone (Sigma-Aldrich, cat. H4001), 9.7 ng/mL human EGF recombinant protein (Invitrogen, cat. PHG0313), 23.4 microg/mL adenine (Sigma-Aldrich, cat. A2786), 97.3 U/mL penicillin-streptomycin (Invitrogen, cat. 15140122), 1.9 mM L-glutamine (Invitrogen, cat. 25030081), and 9.7 microM Y-27632 dihydrochloride (Tocris Bioscience, Bristol, United Kingdom, cat. 1254). The PDCs were cultured in complete DMEM/F12 media without 9.7 microM Y-27632 dihydrochloride for at least two passages prior to the screen. The established cell line HOP-62 was cultured in RPMI 1640 medium, HEPES (Invitrogen, cat. 22400105) with 10% defined fetal bovine serum (HyClone Laboratories Inc., cat. SH30070.03) and 2 mM L-glutamine (Invitrogen, cat. 25030081). The pooled donor HUVEC were cultured in endothelial cell growth medium 2 (PromoCell, Heidelberg, Germany, cat. C-22011) and the hMSC were cultured in mesenchymal stem cell growth medium 2 (PromoCell, cat. C-28009). For all experiments, HUVEC and hMSC were used at passages </=5, while the malignant cell lines were used at passages </=15. […]

[1] = second compound 0.1 µM, first compound 0.0316 µM
[2] = second compound 0.316 µM, first compound 0.0316 µM
[3] = second compound 1 µM, first compound 0.0316 µM
[4] = second compound 3.16 µM, first compound 0.0316 µM
[5] = second compound 10 µM, first compound 0.0316 µM
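Note: viability read after seven days of drug exposure.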

CC(=O)Nc1cccc(-n2c(=O)n(C3CC3)c(=O)c3c(Nc4ccc(I)cc4F)n(C)c(=O)c(C)c32)c1 + C=CC(=O)N1CCN(c2nc(=O)n(-c3c(C)ccnc3C(C)C)c3nc(-c4c(O)cccc4F)c(F)cc23)C(C)C1
IC50 (second compound 0.1 µM): 0.493 nM | IC50 (second compound 0.316 µM): 0.426 nM | IC50 (second compound 1 µM): 1 nM | IC50 (second compound 3.16 µM): 0.444 nM | IC50 (second compound 10 µM): < 0.1 nM | viability, T/C (second compound 0.1 µM, first compound 0.0001 µM): 84.6% | viability, T/C (second compound 0.1 µM, first compound 0.000316 µM): 52.6% | viability, T/C (second compound 0.1 µM, first compound 0.001 µM): 41.3% | viability, T/C (second compound 0.1 µM, first compound 0.00316 µM): 30.1% | viability, T/C (second compound 0.1 µM, first compound 0.01 µM): 25.8% | viability, T/C [1]: 15.7% | viability, T/C (second compound 0.316 µM, first compound 0.0001 µM): 89.7% | viability, T/C (second compound 0.316 µM, first compound 0.000316 µM): 51.9% | viability, T/C (second compound 0.316 µM, first compound 0.001 µM): 38.2% | viability, T/C (second compound 0.316 µM, first compound 0.00316 µM): 31.4% | viability, T/C (second compound 0.316 µM, first compound 0.01 µM): 28.9% | viability, T/C [2]: 19.6% | viability, T/C (second compound 1 µM, first compound 0.0001 µM): 87.9% | viability, T/C (second compound 1 µM, first compound 0.000316 µM): 61% | viability, T/C (second compound 1 µM, first compound 0.001 µM): 54.7% | viability, T/C (second compound 1 µM, first compound 0.00316 µM): 36.6% | viability, T/C (second compound 1 µM, first compound 0.01 µM): 32.9% | viability, T/C [3]: 24.5% | viability, T/C (second compound 3.16 µM, first compound 0.0001 µM): 63.5% | viability, T/C (second compound 3.16 µM, first compound 0.000316 µM): 51.7% | viability, T/C (second compound 3.16 µM, first compound 0.00316 µM): 33.5% | viability, T/C (second compound 3.16 µM, first compound 0.01 µM): 29.5% | viability, T/C [4]: 18.5% | viability, T/C (second compound 10 µM, first compound 0.0001 µM): 50.6% | viability, T/C (second compound 10 µM, first compound 0.000316 µM): 37.1% | viability, T/C (second compound 10 µM, first compound 0.001 µM): 28.8% | viability, T/C (second compound 10 µM, first compound 0.00316 µM): 32.4% | viability, T/C (second compound 10 µM, first compound 0.01 µM): 25% | viability, T/C [5]: 17.8%

COc1cc(Nc2ncc3c(n2)-c2ccc(Cl)cc2C(c2c(F)cccc2OC)=NC3)ccc1C(=O)O + C=CC(=O)N1CCN(c2nc(=O)n(-c3c(C)ccnc3C(C)C)c3nc(-c4c(O)cccc4F)c(F)cc23)C(C)C1
IC50 (second compound 0.1 µM): < 31.6 nM | IC50 (second compound 0.316 µM): < 31.6 nM | IC50 (second compound 1 µM): < 31.6 nM | IC50 (second compound 3.16 µM): < 31.6 nM | IC50 (second compound 10 µM): < 31.6 nM | viability, T/C [1]: 47.6% | viability, T/C (second compound 0.1 µM, first compound 0.1 µM): 49.3% | viability, T/C (second compound 0.1 µM, first compound 0.316 µM): 43% | viability, T/C (second compound 0.1 µM, first compound 1 µM): 42.2% | viability, T/C (second compound 0.1 µM, first compound 3.16 µM): 46.1% | viability, T/C (second compound 0.1 µM, first compound 10 µM): 38.8% | viability, T/C [2]: 43.2% | viability, T/C (second compound 0.316 µM, first compound 0.1 µM): 44.5% | viability, T/C (second compound 0.316 µM, first compound 0.316 µM): 52.2% | viability, T/C (second compound 0.316 µM, first compound 1 µM): 44.5% | viability, T/C (second compound 0.316 µM, first compound 3.16 µM): 44.3% | viability, T/C (second compound 0.316 µM, first compound 10 µM): 36.4% | viability, T/C [3]: 48.1% | viability, T/C (second compound 1 µM, first compound 0.1 µM): 44.8% | viability, T/C (second compound 1 µM, first compound 0.316 µM): 43.1% | viability, T/C (second compound 1 µM, first compound 1 µM): 48% | viability, T/C (second compound 1 µM, first compound 10 µM): 32.7% | viability, T/C [4]: 47.5% | viability, T/C (second compound 3.16 µM, first compound 0.1 µM): 45.9% | viability, T/C (second compound 3.16 µM, first compound 0.316 µM): 36% | viability, T/C (second compound 3.16 µM, first compound 1 µM): 40.3% | viability, T/C (second compound 3.16 µM, first compound 3.16 µM): 37% | viability, T/C (second compound 3.16 µM, first compound 10 µM): 31.9% | viability, T/C [5]: 40.6% | viability, T/C (second compound 10 µM, first compound 0.1 µM): 43.5% | viability, T/C (second compound 10 µM, first compound 0.316 µM): 38.5% | viability, T/C (second compound 10 µM, first compound 1 µM): 37.5% | viability, T/C (second compound 10 µM, first compound 3.16 µM): 34.8% | viability, T/C (second compound 10 µM, first compound 10 µM): 39.6%
